The values below come from BindingDB's records for doi:10.1021/jm051296s (University of Southern California, 2006).

This experiment has as its target Integrin alpha-V/beta-3 (Homo sapiens, UniProt P05106+P06756). The experiment in a line: Inhibition of [125I]echistatin binding to integrin alphaVbeta3 receptor.

Chain of Integrin alpha-V/beta-3 (P05106 27-788 limits assumed): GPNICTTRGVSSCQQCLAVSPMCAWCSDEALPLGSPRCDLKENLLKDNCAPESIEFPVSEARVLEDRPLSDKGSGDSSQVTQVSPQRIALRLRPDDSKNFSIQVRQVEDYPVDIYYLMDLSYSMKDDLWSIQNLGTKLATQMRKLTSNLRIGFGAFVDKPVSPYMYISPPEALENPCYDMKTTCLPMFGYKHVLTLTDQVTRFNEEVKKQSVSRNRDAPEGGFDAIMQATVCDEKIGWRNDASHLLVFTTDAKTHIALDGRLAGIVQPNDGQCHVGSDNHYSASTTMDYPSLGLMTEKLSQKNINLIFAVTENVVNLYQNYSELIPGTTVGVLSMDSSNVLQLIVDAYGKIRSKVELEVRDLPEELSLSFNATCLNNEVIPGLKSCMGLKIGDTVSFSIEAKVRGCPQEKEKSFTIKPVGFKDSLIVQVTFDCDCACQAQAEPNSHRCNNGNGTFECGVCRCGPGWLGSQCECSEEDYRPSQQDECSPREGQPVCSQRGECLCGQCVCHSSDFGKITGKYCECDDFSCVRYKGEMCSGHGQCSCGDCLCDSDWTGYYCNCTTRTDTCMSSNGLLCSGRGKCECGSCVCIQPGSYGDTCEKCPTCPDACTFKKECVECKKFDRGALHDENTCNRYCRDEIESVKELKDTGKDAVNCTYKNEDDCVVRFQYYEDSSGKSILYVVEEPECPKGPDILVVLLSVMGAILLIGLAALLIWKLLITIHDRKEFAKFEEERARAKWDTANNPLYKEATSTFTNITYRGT
Chain of Integrin alpha-V/beta-3 (P06756 31-889 limits assumed): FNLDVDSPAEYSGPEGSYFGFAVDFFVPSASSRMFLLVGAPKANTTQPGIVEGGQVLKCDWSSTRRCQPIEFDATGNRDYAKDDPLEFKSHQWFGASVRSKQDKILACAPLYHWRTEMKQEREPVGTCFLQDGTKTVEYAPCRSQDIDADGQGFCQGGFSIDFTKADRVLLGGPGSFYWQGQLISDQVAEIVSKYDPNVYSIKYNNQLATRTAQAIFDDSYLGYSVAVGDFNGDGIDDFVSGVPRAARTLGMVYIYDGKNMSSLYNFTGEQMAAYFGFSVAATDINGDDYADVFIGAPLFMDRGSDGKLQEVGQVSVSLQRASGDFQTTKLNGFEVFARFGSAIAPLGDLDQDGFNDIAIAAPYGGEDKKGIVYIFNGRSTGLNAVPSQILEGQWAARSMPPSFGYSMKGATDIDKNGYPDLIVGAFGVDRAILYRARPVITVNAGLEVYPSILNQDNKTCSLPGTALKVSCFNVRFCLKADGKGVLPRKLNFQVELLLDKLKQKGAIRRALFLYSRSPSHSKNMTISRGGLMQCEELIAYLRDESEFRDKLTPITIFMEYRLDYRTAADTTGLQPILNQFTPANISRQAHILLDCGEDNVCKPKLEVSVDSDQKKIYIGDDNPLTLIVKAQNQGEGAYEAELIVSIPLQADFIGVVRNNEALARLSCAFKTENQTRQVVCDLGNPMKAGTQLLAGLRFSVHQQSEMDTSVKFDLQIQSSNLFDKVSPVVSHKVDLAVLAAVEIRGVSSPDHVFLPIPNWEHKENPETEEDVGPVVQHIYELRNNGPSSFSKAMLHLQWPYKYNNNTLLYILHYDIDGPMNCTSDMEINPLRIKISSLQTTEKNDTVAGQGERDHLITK
Chain of Integrin alpha-V/beta-3 (P06756 891-1048 limits assumed): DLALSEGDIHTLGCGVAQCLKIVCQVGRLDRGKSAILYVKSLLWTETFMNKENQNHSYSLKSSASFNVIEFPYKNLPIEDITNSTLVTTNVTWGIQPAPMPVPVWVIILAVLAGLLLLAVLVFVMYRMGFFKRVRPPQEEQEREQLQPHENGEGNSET

`O=C(O)c1cccc(-c2ccc(CN=Nc3nc4nonc4nc3Nc3ccc(F)cc3)o2)c1` [3-(5-{[6-(4-fluoro-phenylamino)-[1,2,5]oxadiazolo[3,4-b]pyrazin-5-yl]-hydrazonomethyl}-furan-2-yl)-benzoic acid] registered an IC50 above 1 µM.

In general, IC50 refers to the concentration that gives 50% inhibition. A low value points to greater potency in that assay.
